Assay results reported in patent publication US20190352297A1, “SELECTIVE AURORA A KINASE INHIBITORS” (UNIVERSITAT BERN, priority 2017, published 2019).
Like-named read-outs stand apart in the source and are kept apart here.

Experiments:
HeLa Kyoto cells = assay: Chromosome misalignment during metaphase; format: cell-based, human; conditions: for misaligned chromosomes: HeLa Kyoto cells
Method: HeLa Kyoto cells were cultured in high-glucose DMEM with GlutaMAX (Life Technologies) media supplemented with 10% fetal calf serum (FCS) in a humidified 5% CO2 incubator at 37° C. For plasmid transfections, cells were seeded at 80-90% confluence. 4 μg of plasmid DNA in 100 μl OptiMEM and 4 μl of Lipofectamine 2000 (Life Technologies) in 100 μl OptiMEM were incubated in parallel for 5 minutes, mixed for 20 minutes and added to each well. All Aurora A clones were constructed using full-length Aurora A as a template with appropriate PCR primer pairs. […] GFP-Aurora AR137A and GFP-Aurora AW277A were engineered using a site directed mutagenesis kit (Agilent Technologies, no. 210515) with appropriate primers. For determining the mitotic index and the chromosome misalignment phenotype, cells were incubated with various concentrations of compounds for 20 h before analysis. Cells were likewise treated with 0.25 μM MLN8237 (Selleckchem, no. S1133) or 5 μM ZM447439 (Selleckchem, no. S1103). For flow cytometry analysis, 50 nM […] and 2.5 μM ZM447439 were used. For rescue experiments, HeLa Kyoto cells were first transfected with GFP-Aurora A, GFP-Aurora AR137A or GFP-Aurora AW277A for 20 h, followed by incubation with 9 for another 20 h before cells were fixed with cold methanol and stained. To assess the impact of compound 9 on cell cycle progression, DNA content was analyzed after propidium iodide staining using FACS (BD Accuri C6 flow cytometer).
For immunofluorescence, cells were fixed in cold methanol, washed in PBT (PBS supplemented with 0.05% Tween-20) and stained with the following primary antibodies: 1:200 rabbit anti-pT288 (Cell Signaling, C39D8), 1:200 rabbit anti-pH3S10 (Cell Signaling, D2C8), 1:500 mouse anti-α-tubulin (Transduction Laboratories, 612709), 1:300 mouse anti-GFP (MAB3580, Millipore), 1:200 anti-TPX2 (Santa Cruz Biotechnology, sc-32863), anti-Aurora A (Invitrogen, 458900). Secondary antibodies were anti-mouse conjugated to Alexa488 or Alexa568, as well as anti-rabbit conjugated to Alexa488 or Alexa568, all used at 1:500 (Invitrogen). Confocal images were acquired on a Zeiss LSM 710 confocal microscope equipped with a Axiocam MRm (B/VVW) CCD camera using a 63×NA 1.0 oil objective and processed in ImageJ and Adobe Photoshop, maintaining relative image intensities within a series.

Aurora C = molecular target: T1, Aurora C (Homo sapiens, UniProt Q9UQB9); assay: Active site directed binding competition assay, KD (DiscoveRx)
T1 construct: purchased DiscoveRx scanMAX
T1 sequence (Q9UQB9 1-309): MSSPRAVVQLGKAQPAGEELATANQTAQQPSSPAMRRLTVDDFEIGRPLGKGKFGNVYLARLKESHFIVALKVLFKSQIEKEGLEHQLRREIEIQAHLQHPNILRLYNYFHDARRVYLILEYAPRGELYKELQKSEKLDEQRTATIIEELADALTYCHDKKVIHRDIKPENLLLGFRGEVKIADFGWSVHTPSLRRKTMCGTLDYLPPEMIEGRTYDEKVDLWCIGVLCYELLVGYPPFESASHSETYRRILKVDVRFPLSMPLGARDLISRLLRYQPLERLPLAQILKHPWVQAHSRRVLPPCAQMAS
Method: (§1) The kinome profiling of compound 9 was conducted by DiscoveRx. In total, 456 kinases were assayed (scanMAX). For most assays, kinase-tagged T7 phage strains were grown in parallel in 24-well blocks in an E. coli host derived from the BL21 strain. E. coli were grown to log-phase and infected with T7 phage from a frozen stock (multiplicity of infection=0.4) and incubated with shaking at 32° C. until lysis (90-150 minutes). The lysates were centrifuged (6000 g) and filtered (0.2 μm) to remove cell debris. The remaining kinases were produced in HEK-293 cells and subsequently tagged with DNA for qPCR detection. […] The liganded beads were blocked with excess biotin and washed with blocking buffer (SeaBlock (Pierce), 1% BSA, 0.05% Tween 20, 1 mM DTT) to remove unbound ligand and to reduce non-specific phage binding. […] Test compounds were prepared as 40× stocks in 100% DMSO and directly diluted into the assay. All reactions were performed in polypropylene 384-well plates in a final volume of 0.04 ml. […] The kinase concentration in the eluates was measured by qPCR. […] was screened at 1 μM, and results for primary screen binding interactions were reported as % of control (PoC). PoC=(test compound signal−positive control signal)/(DMSO signal−positive control signal). PoC values at 1 μM 9 for all kinases were visualized using TREEspot (DiscoveRx). […] KD values were determined with a standard dose-response curve using the Hill equation.

[1] = molecular target: T2, Aurora B (without INCENP) (Homo sapiens, UniProt Q96GD4); assay: as above
T2 construct: purchased DiscoveRx scanMAX
T2 sequence (Q96GD4 whole entry): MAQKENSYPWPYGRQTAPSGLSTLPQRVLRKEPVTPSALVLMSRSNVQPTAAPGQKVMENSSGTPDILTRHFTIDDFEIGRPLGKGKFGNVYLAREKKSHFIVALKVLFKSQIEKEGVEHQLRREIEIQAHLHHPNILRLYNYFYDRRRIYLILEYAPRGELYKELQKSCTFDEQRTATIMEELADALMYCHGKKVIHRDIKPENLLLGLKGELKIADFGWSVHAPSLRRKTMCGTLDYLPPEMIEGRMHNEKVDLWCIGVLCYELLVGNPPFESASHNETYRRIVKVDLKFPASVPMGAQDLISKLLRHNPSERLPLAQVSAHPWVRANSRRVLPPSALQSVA
Method: as §1

Aurora A = molecular target: T3, Aurora A (Homo sapiens, UniProt O14965); assay: as above; conditions: free Aurora A
T3 sequence (O14965 1-403): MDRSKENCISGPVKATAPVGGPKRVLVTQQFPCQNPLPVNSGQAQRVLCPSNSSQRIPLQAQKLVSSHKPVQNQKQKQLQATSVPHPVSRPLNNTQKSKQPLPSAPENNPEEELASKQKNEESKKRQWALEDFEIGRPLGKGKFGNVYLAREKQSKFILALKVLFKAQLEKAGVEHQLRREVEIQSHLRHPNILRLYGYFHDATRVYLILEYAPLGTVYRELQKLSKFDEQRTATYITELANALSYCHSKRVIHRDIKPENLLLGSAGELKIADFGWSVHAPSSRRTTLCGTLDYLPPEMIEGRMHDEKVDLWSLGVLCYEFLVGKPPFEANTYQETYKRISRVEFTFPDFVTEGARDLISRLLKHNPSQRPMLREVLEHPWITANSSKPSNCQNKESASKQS
Method: as §1

EC50 (HeLa Kyoto cells; cellular activity as summarised in text, read-out: cellular activity EC50): > 1000 nM | EC50 (HeLa Kyoto cells; read-out: phenotypic EC50, defective chromosome alignment during metaphase): 6000 nM | Kd (Aurora C): 11 nM | Kd [1]: 10 nM | Kd (Aurora A): 5 nM
Compound: CCc1ccc(N=C2SC(=Cc3ccnc(Nc4ccc(C(=O)O)cn4)c3)C(=O)N2C)cc1 [Compound 9]
misaligned chromosomes (HeLa Kyoto cells; 4 μM): ~20% | misaligned chromosomes (HeLa Kyoto cells; 10 μM): ~80% | misaligned chromosomes (HeLa Kyoto cells; 25 μM): ~85%
